Measurements reported in patent publication US9873693B2 (Sunesis Pharmaceuticals, Inc., priority 2006, dated 2018).
Where two headings read alike, the source gives them in different places.

Experiments:
Phospho-T308 Akt = Phospho-T308 Akt detection using immunoblot (western blot) in PC-3 cells; type: cell-based; conditions: for Reduction of Cellular Levels of Akt p308 By Western: 2 hour incubation, concentration not given in Table 2; for inhibition at 2 µM / inhibition at 5 µM: Homo sapiens, read-out: Percent Inhibition of phospho-Akt (308) By Western
Method: A Phospho-T308 Akt detection using immunoblot (western blot) analysis was performed as described below.
PC-3 prostate cells were plated in a 6 well plate in F12K media (Invitrogen, Carlsbad, Calif.) plus 10% FBS (Invitrogen) and placed in incubator overnight. The stock of compound A was a 50 mM solution in DMSO. 1000× dilutions of the compound were made in DMSO. The 1000× dilutions include, 35 mM, 25 mM, 15 mM, 10 mM, 7 mM, 5 mM, and 1 mM. 1 μl of the 1000× dilutions was added to 1 ml F12K media without serum for final concentrations of […]. 1 μl of DMSO was added to 1 ml media with no serum for a control. The 1 ml DMSO or compound plus media was then added to the cells. Following a 2 hour incubation at 37° C., cells were harvested and washed in PBS and subjected to centrifugation at 3,300 rpm for 5 minutes. Cells were lysed in 100 μl of Bio Rad Bioplex buffer containing protease inhibitors (BioRad, Hercules, Calif.) for 30 minutes on ice followed by centrifugation at 13,000 rpm for 5 minutes. The protein content of the supernatant was assayed using DC Protein Assay (BioRad). 25 μl of protein was added to 4× sample buffer (Invitrogen) and sample reducer (Invitrogen) and run on a 4-12% NuPage gel (Invitrogen). Proteins were then transferred to nitrocellulose (Invitrogen). The membrane was blocked in Tris-buffered saline (Sigma, St. Louis, Mo.) plus 0.1% Tween (Sigma) (T-TBS) plus 5% blotting grade milk (BioRad) for 60 minutes. Membranes were then incubated in T-TBS plus 5% BSA (Sigma) plus 1:1000 of anti-phospho akt (Thr 308) (Cell Signaling Technology, Beverly, Mass.) overnight at 4° C. Membranes were washed in T-TBS then incubated in 1:2000 of anti-rabbit-HRP (Cell Signaling) in TTBS plus 5% milk. Membranes were washed again and proteins were visualized with Super Signal West Pico (Pierce, Rockford, Ill.) and using Kodak BioMax MR film (Kodak, Rochester, N.Y.).
Phospho-akt 308 protein bands on the film were quantified using densitometry. An Alpha Imager (Alpha Innotech Corp, San Leandro, Calif.) using AlphaEase FC software version 4.1.0 (Alpha Innotech Corp.) was used to quantitate protein bands. Briefly, a rectangle of equal size was placed around each protein band as well as a background spot on the film. The densitometry values (IDV=Integrated Density Value) obtained for the background spot was then subtracted from the values obtained for the protein bands. These values were used to obtain an EC50 value using non-linear regression analysis in GraphPad Prism Version 4.00 (Graph Pad Prism, San Diego, Calif.). Percent decrease in expression of phosphoh-akt 308 were also measured specifically at 2 μM and 5 μM levels of inhibitor.

phospho-akt (Thr308) = phospho-akt (Thr308) MSD ELISA in PC-3 cells; type: cell-based; conditions: Homo sapiens; for EC50: PC-3, 2 h; for inhibition at 1 µM / inhibition at 10 µM: read-out: Percent Inhibition of phospho-Akt (308) By MSD ELISA
Outline: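 Read-out is MSD electrochemiluminescence after lysate capture overnight at 4 degrees and 1 hr RT detection-antibody step. Before lysis, overnight-plated PC-3 cells received three-fold serial dilutions of inhibitor in serum-free medium, with DMSO-only high controls.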

phosphorylated PDK1 = phosphorylated PDK1 (Homo sapiens (Human), UniProt O15530); test: PDK1 kinase assay (coupled PDK1/AKT/FAM-crosstide, IMAP); type: biochemical; conditions: 0.5 nM phosphorylated PDK1, 24 μM ATP; read-out: Inhibition of phospo-PDK1 in vitro IC50
dephosphorylated PDK1 = dephosphorylated PDK1 (Homo sapiens (Human), UniProt O15530); test: as above; type: biochemical; conditions: 25 nM un-phosphorylated PDK1, 24 μM ATP; read-out: Inhibition of dephospo-PDK1 in vitro IC50
Method: A PDK1 kinase assay was performed as follows. PDK1 (amino acids 51-360) and AKT2 (amino acids 140-467 fused to PIFtide, amino acids […]) were expressed as N-terminally tagged GST fusion proteins in insect cells and purified to greater than 90% homogeneity. PDK1 protein was divided into two fractions, one of which was subsequently dephosphorylated. To generate dephosphorylated PDK1, the PDK1 was reacted with GST-tagged lambda-phosphatase in vitro. GST was subsequently cleaved proteolytically for both phosphorylated and dephosphorylated PDK1. Protein preparations were run on glutathione Sepharose columns to remove GST and GST-tagged lambda-phosphatase, if present. Phosphorylated PDK1 and dephosphorylated PDK1 were verified by mass-spectrometry. Enzyme activity was determined in a coupled PDK1/AKT/FAM-crosstide assay using either phosphorylated or unphosphorylated PDK1 and phosphorylation of FAM-crosstide was determined by standard IMAP protocol (Molecular Devices). For inhibition studies, compounds were titrated 3-fold in DMSO and diluted 40-fold into assay buffer (10 mM Tris HCl pH7.2; 10 mM MgCl2; 0.01% Triton X-100; 1 mM DTT) containing PDK1, AKT2, and FAM-crosstide. (final concentrations: 25 nM un-phosphorylated PDK1 or 0.5 nM phosphorylated PDK1, 30 nM unphosphorylated AKT2, and 100 nM crosstide substrate). The kinase reaction was initiated by adding ATP to a final concentration of 24 μM for both forms of PDK1 and incubated at 25° C. for 30 min. To detect assay product, the kinase reaction was combined with Progressive Binding Solution (1:600 Progressive Binding Reagent, 50% Buffer A, 50% Buffer B, Molecular Devices) in a 1:3 ratio. The mixture was incubated for 2 hours at 25° C. and the plate was scanned on an Analyst AD with excitation at 485 nm and emission at 530 nm. The fluorescence polarization value “P” is defined by the equation below. The value “mP” is generated by multiplying the P value for each reaction well by a factor of 1000. The value “ΔmP” for each well is the mP value for that well minus the mP value for the average negative control. P=(Fpar−Fperp)/(Fpar+Fperp) Eq.:
Where “par” is fluorescence intensity parallel to the excitation plane; and “perp” is fluorescence intensity perpendicular to the excitation plane. ΔmP values were plotted as a function of compound concentration and the data were analyzed with a 4-parameter fit using GraphPad Prism software.

[1] = PC-3 cells, 2 hours, no serum, read-out: Inhibition of P308 Akt in cells using MSD EC50
[2] = PC-3 cells, 2 hours, no serum, read-out: Reduction of Cellular Levels of Akt p308 By MSD ELISA (EC50 μM)

Chain of dephosphorylated PDK1 (O15530 51-360): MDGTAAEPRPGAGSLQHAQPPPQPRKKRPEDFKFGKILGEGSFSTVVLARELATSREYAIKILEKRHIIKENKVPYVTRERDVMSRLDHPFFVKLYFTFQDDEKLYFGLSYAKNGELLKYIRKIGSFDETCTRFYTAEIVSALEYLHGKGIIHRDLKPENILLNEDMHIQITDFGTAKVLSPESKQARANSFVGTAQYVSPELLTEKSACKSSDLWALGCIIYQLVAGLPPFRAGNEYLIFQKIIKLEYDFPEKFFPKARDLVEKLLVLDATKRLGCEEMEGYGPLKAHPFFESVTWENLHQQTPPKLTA
Chain of phosphorylated PDK1 (O15530 51-360): as above

Row | Structure (SMILES) | Reduction of Cellular Levels of Akt p308 By Western (Phospho-T308 Akt) | inhibition at 2 µM (Phospho-T308 Akt) [%] | EC50 (phospho-akt (Thr308); [1]) [µM] | inhibition at 1 µM (phospho-akt (Thr308); PC-3 cells) [%] | inhibition at 10 µM (phospho-akt (Thr308); PC-3 cells) [%] | IC50 (phosphorylated PDK1) [nM] | inhibition at 5 µM (Phospho-T308 Akt) [%] | EC50 (phospho-akt (Thr308); read-out: Inhibition of P308 Akt in cells using MSD EC50) [µM] | EC50 (phospho-akt (Thr308); read-out: Reduction of Cellular Levels of Akt p308 By MSD ELISA (EC50 μM)) [µM] | EC50 (phospho-akt (Thr308); [2]) [µM] | IC50 (dephosphorylated PDK1) [nM]
1 | O=C(NCc1cc(-c2c[nH]c3ncccc23)cs1)c1cccn(Cc2ccc(F)c(F)c2)c1=O [Cpd 17] | bbb (inhibition of more than 75%) | > 75 | 1 to 5 | 25 to 75 | > 75 | < 500 |  |  |  |  | 
2 | COC(=O)C[C@H](NC(=O)c1cccn(Cc2ccc(F)c(F)c2)c1=O)c1nnc(-c2c[nH]c3ncccc23)o1 [Cpd 291] | bbb (inhibition of more than 75%) |  | < 1 | 25 to 75 | > 75 | < 500 | > 75 |  |  |  | 
3 | NC(=O)C[C@@H](NC(=O)c1cccn(Cc2ccc(F)c(F)c2)c1=O)c1ccc(-c2c[nH]c3ncccc23)s1 [Cpd 19] | bbb (inhibition of more than 75%) | > 75 |  |  |  | < 500 |  | 1 to 5 | 1 to 5 |  | 
4 | CC(=O)NC[C@@H](NC(=O)c1cccn(Cc2ccc(F)c(F)c2)c1=O)c1nc(-c2c[nH]c3ncccc23)cs1 [Cpd 136] |  |  |  |  |  |  | 25 to 75 |  |  |  | 
5 | O=C(NCCOc1cc2[nH]c(=O)[nH]c2cn1)c1cccn(Cc2ccc(F)c(F)c2)c1=O [Cpd 279] |  |  |  |  |  | < 500 |  |  |  | > 5 | < 500
6 | O=C(NCc1noc(-c2ccc3ncnn3c2)n1)c1cccn(Cc2ccc(F)c(F)c2)c1=O [Cpd 235] |  |  |  |  |  | 500 to 10000 |  |  |  | > 5 | < 500
7 | Cc1ccc(Cn2cccc(C(=O)NCc3noc(-c4c[nH]c5ncccc45)n3)c2=O)cc1Cl [Cpd 317] |  |  | > 5 | 25 to 75 | > 75 | < 500 |  |  |  |  | < 500
8 | O=C(NCc1noc(-c2c[nH]c3ncccc23)n1)c1cc(Cl)cn(Cc2ccc(F)cc2)c1=O [Cpd 319] |  |  | > 5 | < 25 | 25 to 75 | < 500 |  |  |  |  | < 500
9 | O=C(NCc1cc(-c2c[nH]c3ncccc23)[nH]n1)c1cccn(Cc2cc(F)c(F)c(F)c2)c1=O [Cpd 152] |  |  | 1 to 5 |  |  | < 500 |  |  |  |  | < 500
10 | COC(=O)c1cc(-c2c[nH]c3ncccc23)cc(CNC(=O)c2cccn(Cc3ccc(F)c(F)c3)c2=O)n1 [Cpd 175] |  |  | < 1 |  |  | < 500 |  |  |  |  | < 500
11 | CC1(C)C(=O)Nc2cc(/C=C/CNC(=O)c3cccn(Cc4cc(F)c(F)c(F)c4)c3=O)ccc21 [Cpd 206] |  |  | 1 to 5 |  |  | 500 to 10000 |  |  |  |  | < 500
12 | O=C(c1cccn(Cc2ccc(F)c(F)c2)c1=O)N1CCc2ccc(-c3c[nH]c4ncccc34)cc2C1 [Cpd 232] |  |  | > 5 |  |  | 500 to 10000 |  |  |  |  | 500 to 10000
13 | O=C(NCCOc1ccc2[nH]c(=O)[nH]c2c1)c1cccn(Cc2ccc(F)c(F)c2)c1=O [Cpd 113] |  |  | > 5 |  |  | < 500 |  |  |  |  | < 500
14 | O=C(NCc1noc(-c2c[nH]c3ncccc23)n1)c1cc(Cl)cn(Cc2ccc(F)c(F)c2)c1=O [Cpd 314] |  |  | > 5 | 25 to 75 | > 75 | < 500 |  |  |  |  | < 500
15 | O=C(N[C@H](CCCO)c1nc(-c2c[nH]c3ncccc23)c[nH]1)c1cccn(Cc2ccc(F)c(F)c2)c1=O [Cpd 313] |  |  |  | 25 to 75 | 25 to 75 | < 500 |  |  |  |  | < 500
16 | O=C(NCCOc1ccc2cc[nH]c2c1)c1cccn(Cc2ccc(F)c(F)c2)c1=O [Cpd 179] |  |  | > 5 |  |  | 500 to 10000 |  |  |  |  | 500 to 10000
17 | O=C(NCc1cccc(-c2ccc3nccn3c2)c1)c1cccn(Cc2ccc(F)c(F)c2)c1=O [Cpd 336] |  |  |  | 25 to 75 | > 75 |  | > 75 |  |  |  | 
18 | O=C(NCc1noc(-c2c[nH]c3ncccc23)n1)c1cccn(Cc2ccc(C(F)(F)F)c(F)c2)c1=O [Cpd 141] |  |  | 1 to 5 |  |  | < 500 |  |  |  | 1 to 5 | < 500
19 | O=C(C[C@@H](NC(=O)c1cccn(Cc2ccc(F)c(F)c2)c1=O)c1nnc(-c2c[nH]c3ncccc23)o1)NCCO [Cpd 297] |  |  |  | < 25 | < 25 | < 500 |  |  |  |  | < 500
20 | NC(=O)CC[C@@H](NC(=O)c1cccn(Cc2ccc(F)c(F)c2)c1=O)c1nc(-c2c[nH]c3ncccc23)cs1 [Cpd 318] |  |  |  | < 25 | 25 to 75 | < 500 |  |  |  |  | < 500
21 | CC(C)n1c(=O)[nH]c2cc(OCCNC(=O)c3cccn(Cc4ccc(F)c(F)c4)c3=O)ccc21 [Cpd 280] |  |  | > 5 | 25 to 75 | 25 to 75 | < 500 |  |  |  |  | < 500
22 | O=C(NCc1ccc(-c2n[nH]c3ncccc23)s1)c1cccn(Cc2ccc(F)c(F)c2)c1=O [Cpd 7] |  |  | < 1 | 25 to 75 | > 75 | < 500 |  |  |  | < 1 | < 500
23 | CC(C)[C@@H](COc1ccc2[nH]c(=O)[nH]c2c1)NC(=O)c1cccn(Cc2ccc(F)c(F)c2)c1=O [Cpd 320] |  |  |  | < 25 | 25 to 75 | 500 to 10000 |  |  |  |  | < 500
